# From patent US8202856B2 (Merck Serono SA, priority 2007, dated 2012)
# Target: S1P1 receptor (Homo sapiens, UniProt P21453)
# Assay: 35S-GTPγS binding, membranes from CHO cells expressing S1P1
# Format: biochemical
# Settings: CHO cell membranes expressing S1P1
# Outline: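 Membranes (1–10 μg) from CHO cells expressing the receptor were incubated with compound in 20 mM HEPES pH 7.4, 10 mM MgCl2, 140 mM NaCl, 1.7 μM GDP, saponin and 0.2% BSA. [35S]GTPγS (added at 1.5 nM) was then bound for 60 min at 30 °C. Membrane-bound radioactivity, averaged over triplicates, is expressed relative to S1P activation (n=2).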
# Chain of S1P1 receptor (P21453 whole entry): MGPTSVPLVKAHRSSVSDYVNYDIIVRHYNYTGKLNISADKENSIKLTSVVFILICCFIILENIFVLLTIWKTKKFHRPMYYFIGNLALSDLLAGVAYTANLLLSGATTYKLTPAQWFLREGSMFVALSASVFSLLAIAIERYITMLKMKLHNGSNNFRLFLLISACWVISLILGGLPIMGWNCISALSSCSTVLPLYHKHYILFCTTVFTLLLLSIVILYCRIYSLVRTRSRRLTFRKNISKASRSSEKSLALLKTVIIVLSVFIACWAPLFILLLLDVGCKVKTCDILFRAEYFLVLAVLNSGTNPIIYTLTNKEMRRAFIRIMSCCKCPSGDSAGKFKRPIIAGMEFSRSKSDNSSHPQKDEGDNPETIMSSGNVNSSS
row,Compound,EC50 [nM]
1,"Fc1ccccc1-n1nnc(-c2nc(-c3cccc(Cn4cncn4)c3)no2)c1-c1ccccn1 [Example 86, 2-(1-(2-fluorophenyl)-4-{3-[3-(1H-1,2,4-triazol-1-ylmethyl)phenyl]-1,2,4-oxadiazol-5-yl}-1H-1,2,3-triazol-5-yl)pyridine]",751
2,"Cc1c(-c2nc(-c3cc(F)ccc3F)no2)nnn1-c1ccccc1F [Example 2, 3-[2,5-Difluorophenyl)-5-[1-(2-fluorophenyl)-5-methyl-1H-1,2,3-triazole-4-yl]-1,2,4-oxadiazole]",1130
3,"COCCc1c(-c2nc(-c3cc(F)ccc3F)no2)nnn1-c1ccccc1F [Example 44, 3-(2,5-difluorophenyl)-5-[1-(2-fluorophenyl)-5-(2-methoxyethyl)-1H-1,2,3-triazol-4-yl]-1,2,4-oxadiazole]",53
4,"Cc1ccc(-c2noc(-c3nnn(-c4ccccc4F)c3-c3ccncc3)n2)cc1 [Example 107, 4-{1-(2-fluorophenyl)-4-[3-(4-methylphenyl)-1,2,4-oxadiazol-5-yl]-1H-1,2,3-triazol-5-yl}pyridine]",49
5,"Fc1ccccc1-n1nnc(-c2nc(-c3cnccn3)no2)c1-c1ccncc1 [Example 119, 2-{5-[1-(2-fluorophenyl)-5-pyridin-4-yl-1H-1,2,3-triazol-4-yl]-1,2,4-oxadiazol-3-yl}pyrazine]",1260
6,"Fc1ccccc1-c1noc(-c2nnn(-c3ccccc3F)c2C2CCCC2)n1 [Example 78, 5-[5-cyclopentyl-1-(2-fluorophenyl)-1H-1,2,3-triazol-4-yl]-3-(2-fluorophenyl)-1,2,4-oxadiazole]",397
7,"COCc1c(-c2nc(-c3cccc(S(N)(=O)=O)c3)no2)nnn1-c1ccccc1F [Example 93, 3-{5-[1-(2-fluorophenyl)-5-(methoxymethyl)-1H-1,2,3-triazol-4-yl]-1,2,4-oxadiazol-3-yl}benzenesulfonamide]",754
8,"OCC1CN(Cc2ccc(-c3noc(-c4nnn(-c5ccccc5F)c4-c4ccncc4)n3)cc2)CCO1 (stereo not drawn) [Example 143, [4-(4-{5-[1-(2-fluorophenyl)-5-pyridin-4-yl-1H-1,2,3-triazol-4-yl]-1,2,4-oxadiazol-3-yl}benzyl)morpholin-2-yl]methanol]",118
9,"O=C(O)c1ccc(-c2noc(-c3nnn(-c4ccccc4F)c3-c3ccccc3)n2)cc1 [Example 24, 4-{5-[1-(2-Fluorophenyl)-5-phenyl-1H-1,2,3-triazole-4-yl]-1,2,4-oxadiazole-3-yl}benzoic acid]",1840
10,"COc1ccc(F)cc1-c1noc(-c2nnn(-c3ccccc3F)c2-c2ccncc2)n1 [Example 122, 4-[4-[3-(5-fluoro-2-methoxyphenyl)-1,2,4-oxadiazol-5-yl]-1-(2-fluorophenyl)-1H-1,2,3-triazol-5-yl]pyridine]",56
11,"OCC1CCN(Cc2ccc(-c3noc(-c4nnn(-c5ccccc5F)c4-c4ccncc4)n3)cc2)CC1 [Example 139, [1-(4-{5-[1(2-fluorophenyl)-5-pyridin-4-yl-1H-1,2,3-triazol-4-yl]-1,2,4-oxadiazol-3-yl}benzyl)piperidin-4-yl]methanol]",118
12,"O=C(O)[C@@H]1CCCN1Cc1ccc(-c2noc(-c3nnn(-c4ccccc4F)c3-c3ccncc3)n2)cc1 [Example 159, 1-(4-{5-[1(2-fluorophenyl)-5-pyridin-4-yl-1H-1,2,3-triazol-4-yl]-1,2,4-oxadiazol-3-yl}benzyl)-L-proline]",574
13,"Fc1ccccc1-n1nnc(-c2nc(-c3ccc(CN4CC[C@@H](F)C4)cc3)no2)c1-c1ccncc1 [Example 160, 4-{1-(2-fluorophenyl)-4-[3-(4-{[(3R)-3-fluoropyrrolidin-1-yl]methyl}phenyl)-1,2,4-oxadiazol-5-yl]-1H-1,2,3-triazol-5-yl}pyridine]",71
14,"COCc1c(-c2nc(-c3ccc(S(N)(=O)=O)cc3)no2)nnn1-c1ccccc1F [Example 76, 4-{5-[1-(2-fluorophenyl)-5-(methoxymethyl)-1H-1,2,3-triazol-4-yl]-1,2,4-oxadiazol-3-yl}benzenesulfonamide]",583
15,"Fc1ccccc1-n1nnc(-c2nc(-c3ccc4c(c3)NCC4)no2)c1-c1ccncc1 [Example 157, 6-{5-[1-(2-fluorophenyl)-5-pyridin-4-yl-1H-1,2,3-triazol-4-yl]-1,2,4-oxadiazol-3-yl}indoline]",218
16,"OCC1CCCN(Cc2ccc(-c3noc(-c4nnn(-c5ccccc5F)c4-c4ccncc4)n3)cc2)C1 (stereo not drawn) [Example 140, [1-(4-{5-[1-(2-fluorophenyl)-5-pyridin-4-yl-1H-1,2,3-triazol-4-yl]-1,2,4-oxadiazol-3-yl}benzyl)piperidin-3-yl]methanol]",530
17,"Fc1ccc(-c2noc(-c3nnn(-c4ccccc4F)c3-c3ccncc3)n2)cc1 [Example 96, 4-{1-(2-fluorophenyl)-4-[3-(4-fluorophenyl)-1,2,4-oxadiazol-5-yl]-1H-1,2,3-triazol-5-yl}pyridine]",138

row,Compound,EC50 [nM]
1,"Fc1ccccc1-n1nnc(-c2nc(-c3ccncc3)no2)c1C1CCCO1 (stereo not drawn) [Example 56, 4-{5-[1-(2-fluorophenyl)-5-(tetrahydrofuran-2-yl)-1H-1,2,3-triazol-4-yl]-1,2,4-oxadiazol-3-yl}pyridine]",1850
2,"COc1ccc(-c2noc(-c3nnn(-c4ccccc4F)c3-c3ccncc3)n2)cn1 [Example 126, 5-{5-[1-(2-fluorophenyl)-5-pyridin-4-yl-1H-1,2,3-triazol-4-yl]-1,2,4-oxadiazol-3-yl}-2-methoxypyridine]",226
3,"CN(C)Cc1ccc(-c2noc(-c3nnn(-c4ccccc4F)c3-c3ccncc3)n2)cc1 [Example 131, 1-(4-{5-[1-(2-fluorophenyl)-5-pyridin-4-yl-1H-1,2,3-triazol-4-yl]-1,2,4-oxadiazol-3-yl}phenyl)-N,N-dimethylmethanamine]",11
4,"Fc1ccccc1-n1nnc(-c2nc(-c3cccc(Cn4ccnc4)c3)no2)c1-c1ccncc1 [Example 82, 4-(1-(2-fluorophenyl)-4-{3-[3-(1H-imidazol-1-ylmethyl)phenyl]-1,2,4-oxadiazol-5-yl}-1H-1,2,3-triazol-5-yl)pyridine]",176
5,"CC(=O)N1CCc2cc(-c3noc(-c4nnn(-c5ccccc5F)c4-c4ccncc4)n3)ccc21 [Example 153, 1-acetyl-5-{5-[1-(2-fluorophenyl)-5-pyridin-4-yl-1H-1,2,3-triazol-4-yl]-1,2,4-oxadiazol-3-yl}indoline]",90
6,"CC(=O)Nc1ccc(-c2noc(-c3nnn(-c4ccccc4F)c3-c3ccncc3)n2)cn1 [Example 145, N-(5-{5-[1-(2-fluorophenyl)-5-pyridin-4-yl-1H-1,2,3-triazol-4-yl]-1,2,4-oxadiazol-3-yl}pyridin-2-yl)acetamide]",230
7,"O=C(O)C1CCCN(Cc2ccc(-c3noc(-c4nnn(-c5ccccc5F)c4-c4ccncc4)n3)cc2)C1 (stereo not drawn) [Example 158, 1-(4-{5-[1-(2-fluorophenyl)-5-pyridin-4-yl-1H-1,2,3-triazol-4-yl]-1,2,4-oxadiazol-3-yl}benzyl)piperidine-3-carboxylic acid]",56
8,"Oc1ccc(-c2noc(-c3nnn(-c4ccccc4F)c3-c3ccncc3)n2)cc1 [Example 64, 4-{5-[1-(2-fluorophenyl)-5-pyridin-4-yl-1H-1,2,3-triazol-4-yl]-1,2,4-oxadiazol-3-yl}phenol]",8
9,"OC1CCN(Cc2cccc(-c3noc(-c4nnn(-c5ccccc5F)c4-c4ccncc4)n3)c2)C1 (stereo not drawn) [Example 134, 1-(3-{5-[1-(2-fluorophenyl)-5-pyridin-4-yl-1H-1,2,3-triazol-4-yl]-1,2,4-oxadiazol-3-yl}benzyl)pyrrolidin-3-ol]",758
10,"CN(C)Cc1c(-c2nc(-c3cc(F)ccc3F)no2)nnn1-c1ccccc1F [Example 91, 1-[4-[3-(2,5-difluorophenyl)-1,2,4-oxadiazol-5-yl]-1-(2-fluorophenyl)-1H-1,2,3-triazol-5-yl]-N,N-dimethylmethanamine]",443
11,"Fc1ccccc1-n1nnc(-c2nc(-c3cccc(Br)c3)no2)c1-c1ccncc1 [Example 100, 4-[4-[3-(3-bromophenyl)-1,2,4-oxadiazol-5-yl]-1-(2-fluorophenyl)-1H-1,2,3-triazol-5-yl]pyridine]",18
12,"O=C(O)[C@H]1CC[C@@H](NCc2ccc(-c3noc(-c4nnn(-c5ccccc5F)c4-c4ccncc4)n3)cc2)C1 [Example 169, (1S, 3R)-3-(4-(5-(1-(2-fluorophenyl)-5-(pyridin-4-yl)-1H-1,2,3-triazol-4-yl)-1,2,4-oxadiazol-3-yl)benzylamino)cyclopentanecarboxylic acid]",8
13,"CN(CCO)Cc1ccc(-c2noc(-c3nnn(-c4ccccc4F)c3-c3ccncc3)n2)cc1 [Example 144, 2-[(4-{5-[1-(2-fluorophenyl)-5-pyridin-4-yl-1H-1,2,3-triazol-4-yl]-1,2,4-oxadiazol-3-yl}benzyl)(methyl)amino]ethanol]",108
14,"Nc1cc(-c2noc(-c3nnn(-c4ccccc4F)c3-c3ccncc3)n2)ccn1 [Example 152, 4-{5-[1-(2-fluorophenyl)-5-pyridin-4-yl-1H-1,2,3-triazol-4-yl]-1,2,4-oxadiazol-3-yl}pyridin-2-amine]",78
15,Fc1ccccc1-n1nnc(-c2nc(-c3cccnc3)no2)c1C1CCCO1 (stereo not drawn) [Example 54],953
16,"CC(C)(C)OC(=O)NCc1ccc(-c2noc(-c3nnn(-c4ccccc4F)c3-c3ccncc3)n2)cc1 [Example 74, tert-butyl (4-{5-[1-(2-fluorophenyl)-5-pyridin-4-yl-1H-1,2,3-triazol-4-yl]-1,2,4-oxadiazol-3-yl}benzyl)carbamate]",1100
